Columns and labels:
[1] = molecular target: T1, purified recombinant human GAC (GLS1) (Homo sapiens, UniProt O94925); assay: GLS1 Enzymatic Activity Assay (dual-coupled enzymatic assay); assay type: biochemical
T1 sequence (O94925 55-598 isoform O94925-3 limits assumed): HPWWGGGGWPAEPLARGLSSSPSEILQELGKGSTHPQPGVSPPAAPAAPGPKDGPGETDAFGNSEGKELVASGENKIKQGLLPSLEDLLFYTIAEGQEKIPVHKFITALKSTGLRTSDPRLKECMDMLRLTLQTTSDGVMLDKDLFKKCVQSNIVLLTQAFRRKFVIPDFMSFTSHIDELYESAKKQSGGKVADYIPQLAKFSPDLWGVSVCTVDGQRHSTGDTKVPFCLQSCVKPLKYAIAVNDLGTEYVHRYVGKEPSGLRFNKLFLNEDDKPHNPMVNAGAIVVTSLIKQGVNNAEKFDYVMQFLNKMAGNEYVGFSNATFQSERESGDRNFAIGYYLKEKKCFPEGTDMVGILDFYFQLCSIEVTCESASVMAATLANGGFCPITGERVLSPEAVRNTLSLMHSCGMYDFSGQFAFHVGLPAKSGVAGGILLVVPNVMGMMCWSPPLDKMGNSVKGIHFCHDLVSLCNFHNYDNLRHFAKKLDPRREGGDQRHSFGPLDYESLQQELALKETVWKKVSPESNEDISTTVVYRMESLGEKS
Method: GLS1 Enzymatic Activity Assay
The inhibition of purified recombinant human GAC by varying concentrations of inhibitors is assessed via a dual-coupled enzymatic assay. The glutamate produced by the glutaminase reaction is used by glutamate oxidase to produce α-ketoglutarate, ammonia, and hydrogen peroxide, with this hydrogen peroxide subsequently being used by horseradish peroxidase to produce resorufin in the presence of Amplex UltraRed. The assay buffer consisted of 50 mM Hepes (pH 7.4), 0.25 mM EDTA and 0.1 mM Triton X-100. GAC was incubated with potassium phosphate (10 minutes at room temperature) prior to incubation with inhibitor (10 minutes at room temperature). The final reaction conditions were as follows: 2 nM GAC, 50 mM potassium phosphate, 100 mU/mL glutamate oxidase (Sigma), 1 mM glutamine (Sigma), 100 mU/mL horseradish peroxidase (Sigma), 75 μM Amplex UltraRed (Life Technologies), and 1% (v/v) DMSO. The production of resorufin was monitored on a Perkin Elmer Envision plate reader (excitation 530 nm, emission 590 nm) either in a kinetics or endpoint mode (at 20 minutes). IC50 values were calculated using a four-parameter logistic curve fit.

A549 cells = assay: Proliferation Assay (A549 cell viability, Cell Titer Fluor); assay type: cell-based; conditions: Homo sapiens, 72 hours
Method: A549 cells were routinely maintained in RPMI 1640 media (Gibco catalog number 11875-093) supplemented with 10% dialyzed fetal bovine serum using a humidified incubator (37° C., 5% CO2 and ambient O2). In preparation for the viability assay, cells were inoculated into 384-well black CulturPlates (Perkin Elmer) at a density of 1000 cells/well in a volume of 40 uL. Following a 24-hour incubation at 37° C., 5% CO2 and ambient O2, cells were treated with compound (10 uL) in a final DMSO concentration of 0.5% (v/v). The microplates were then incubated for 72 hours (37° C., 5% CO2 and ambient O2). Cell Titer Fluor (Promega) was subsequently added (10 uL of 6× reagent) and mixed for 15 minutes at room temperature. The plates were then incubated for 30 minutes (37° C., 5% CO2 and ambient O2) and fluorescence was subsequently read on the Perkin Elmer Envision plate reader. EC50 values were calculated using a four-parameter logistic curve fit.

IC50 [1] [nM] | EC50 (A549 cells) [nM] | SMILES
100 to 500 | 100 to 500 | O=C(NCc1cccnc1)c1cn(CCCCc2cc3cc(C4CC4)[nH]c3nn2)nn1 [Example 36, 1-(4-{6-cyclopropyl-7H-pyrrolo[2,3-c]pyridazin-3-yl}butyl)-N-(pyridin-3-ylmethyl)-1H-1,2,3-triazole-4-carboxamide]
100 to 500 | 500 to 5000 | O=C(NCc1ccncc1)c1cn(CCCCc2cc3cc(C4CC4)[nH]c3nn2)nn1 [Example 37, 1-(4-{6-cyclopropyl-7H-pyrrolo[2,3-c]pyridazin-3-yl}butyl)-N-(pyridin-4-ylmethyl)-1H-1,2,3-triazole-4-carboxamide]
500 to 5000 | 500 to 5000 | O=C(NCc1ncccn1)c1cn(CCCCc2cc3cc(C4CC4)[nH]c3nn2)nn1 [Example 38, 1-(4-{6-cyclopropyl-7H-pyrrolo[2,3-c]pyridazin-3-yl}butyl)-N-(pyrimidin-2-ylmethyl)-1H-1,2,3-triazole-4-carboxamide]
100 to 500 | 100 to 500 | COc1ccnc(CNC(=O)c2cn(CCCCc3cc4cc(C5CC5)[nH]c4nn3)nn2)c1 [Example 39, 1-(4-{6-cyclopropyl-7H-pyrrolo[2,3-c]pyridazin-3-yl}butyl)-N-[(4-methoxypyridin-2-yl)methyl]-1H-1,2,3-triazole-4-carboxamide]
< 100 | 500 to 5000 | O=C(NCc1ccc(C(F)(F)F)nc1)c1cn(CCCCc2cc3cc(C4CC4)[nH]c3nn2)nn1 [Example 40, 1-(4-{6-cyclopropyl-7H-pyrrolo[2,3-c]pyridazin-3-yl}butyl)-N-{[6-(trifluoromethyl)pyridin-3-yl]methyl}-1H-1,2,3-triazole-4-carboxamide]
100 to 500 | 500 to 5000 | O=C(NCc1ccc(Cl)nc1)c1cn(CCCCc2cc3cc(C4CC4)[nH]c3nn2)nn1 [Example 41, N-[(6-chloropyridin-3-yl)methyl]-1-(4-{6-cyclopropyl-7H-pyrrolo[2,3-c]pyridazin-3-yl}butyl)-1H-1,2,3-triazole-4-carboxamide]
< 100 | 500 to 5000 | COc1ccc(CNC(=O)c2cn(CCCCc3cc4cc(C5CC5)[nH]c4nn3)nn2)cn1 [Example 42, 1-(4-{6-cyclopropyl-7H-pyrrolo[2,3-c]pyridazin-3-yl}butyl)-N-[(6-methoxypyridin-3-yl)methyl]-1H-1,2,3-triazole-4-carboxamide]
< 100 | 500 to 5000 | O=C(NCc1cccc(OCC(F)(F)F)n1)c1cn(CCCCc2cc3cc(C4CC4)[nH]c3nn2)nn1 [Example 43, 1-(4-{6-cyclopropyl-7H-pyrrolo[2,3-c]pyridazin-3-yl}butyl)-N-{[6-(2,2,2-trifluoroethoxy)pyridin-2-yl]methyl}-1H-1,2,3-triazole-4-carboxamide]
100 to 500 | 500 to 5000 | COc1cc(CNC(=O)c2cn(CCCCc3cc4cc(C5CC5)[nH]c4nn3)nn2)ccn1 [Example 44, 1-(4-{6-cyclopropyl-7H-pyrrolo[2,3-c]pyridazin-3-yl}butyl)-N-[(2-methoxypyridin-4-yl)methyl]-1H-1,2,3-triazole-4-carboxamide]
100 to 500 | 500 to 5000 | Cn1cnc(CNC(=O)c2cn(CCCCc3cc4cc(C5CC5)[nH]c4nn3)nn2)c1 [Example 45, 1-(4-{6-cyclopropyl-7H-pyrrolo[2,3-c]pyridazin-3-yl}butyl)-N-[(1-methyl-1H-imidazol-4-yl)methyl]-1H-1,2,3-triazole-4-carboxamide]
< 100 | 500 to 5000 | Cc1cncc(CNC(=O)c2cn(CCCCc3cc4cc(C5CC5)[nH]c4nn3)nn2)c1 [Example 46, 1-(4-{6-cyclopropyl-7H-pyrrolo[2,3-c]pyridazin-3-yl}butyl)-N-[(5-methylpyridin-3-yl)methyl]-1H-1,2,3-triazole-4-carboxamide]
100 to 500 | 500 to 5000 | Cc1ccncc1CNC(=O)c1cn(CCCCc2cc3cc(C4CC4)[nH]c3nn2)nn1 [Example 47, 1-(4-{6-cyclopropyl-7H-pyrrolo[2,3-c]pyridazin-3-yl}butyl)-N-[(4-methylpyridin-3-yl)methyl]-1H-1,2,3-triazole-4-carboxamide]
< 100 | 500 to 5000 | COc1cncc(CNC(=O)c2cn(CCCCc3cc4cc(C5CC5)[nH]c4nn3)nn2)c1 [Example 48, 1-(4-{6-cyclopropyl-7H-pyrrolo[2,3-c]pyridazin-3-yl}butyl)-N-[(5-methoxypyridin-3-yl)methyl]-1H-1,2,3-triazole-4-carboxamide]
500 to 5000 | 500 to 5000 | COc1ncccc1CNC(=O)c1cn(CCCCc2cc3cc(C4CC4)[nH]c3nn2)nn1 [Example 49, 1-(4-{6-cyclopropyl-7H-pyrrolo[2,3-c]pyridazin-3-yl}butyl)-N-[(2-methoxypyridin-3-yl)methyl]-1H-1,2,3-triazole-4-carboxamide]
100 to 500 | 500 to 5000 | Cc1cc(CNC(=O)c2cn(CCCCc3cc4cc(C5CC5)[nH]c4nn3)nn2)nn1C [Example 50, 1-(4-{6-cyclopropyl-7H-pyrrolo[2,3-c]pyridazin-3-yl}butyl)-N-[(1,5-dimethyl-1H-pyrazol-3-yl)methyl]-1H-1,2,3-triazole-4-carboxamide]
100 to 500 | 500 to 5000 | Cn1cc(CNC(=O)c2cn(CCCCc3cc4cc(C5CC5)[nH]c4nn3)nn2)cn1 [Example 51, 1-(4-{6-cyclopropyl-7H-pyrrolo[2,3-c]pyridazin-3-yl}butyl)-N-[(1-methyl-1H-pyrazol-4-yl)methyl]-1H-1,2,3-triazole-4-carboxamide]
100 to 500 | 500 to 5000 | Cn1ccc(CNC(=O)c2cn(CCCCc3cc4cc(C5CC5)[nH]c4nn3)nn2)n1 [Example 52, 1-(4-{6-cyclopropyl-7H-pyrrolo[2,3-c]pyridazin-3-yl}butyl)-N-[(1-methyl-1H-pyrazol-3-yl)methyl]-1H-1,2,3-triazole-4-carboxamide]
100 to 500 | 500 to 5000 | N#Cc1ccc(CNC(=O)c2cn(CCCCc3cc4cc(C5CC5)[nH]c4nn3)nn2)cn1 [Example 53, N-[(6-cyanopyridin-3-yl)methyl]-1-(4-{6-cyclopropyl-7H-pyrrolo[2,3-c]pyridazin-3-yl}butyl)-1H-1,2,3-triazole-4-carboxamide]
500 to 5000 | > 5000 | Cn1ccnc1CNC(=O)c1cn(CCCCc2cc3cc(C4CC4)[nH]c3nn2)nn1 [Example 54, 1-(4-{6-cyclopropyl-7H-pyrrolo[2,3-c]pyridazin-3-yl}butyl)-N-[(1-methyl-1H-imidazol-2-yl)methyl]-1H-1,2,3-triazole-4-carboxamide]
100 to 500 | 500 to 5000 | Cc1cccc(CNC(=O)c2cn(CCCCc3cc4cc(C5CC5)[nH]c4nn3)nn2)n1 [Example 55, 1-(4-{6-cyclopropyl-7H-pyrrolo[2,3-c]pyridazin-3-yl}butyl)-N-[(6-methylpyridin-2-yl)methyl]-1H-1,2,3-triazole-4-carboxamide]
100 to 500 | 500 to 5000 | Cc1ccc(CNC(=O)c2cn(CCCCc3cc4cc(C5CC5)[nH]c4nn3)nn2)nc1 [Example 56, 1-(4-{6-cyclopropyl-7H-pyrrolo[2,3-c]pyridazin-3-yl}butyl)-N-[(5-methylpyridin-2-yl)methyl]-1H-1,2,3-triazole-4-carboxamide]
< 100 | 100 to 500 | O=C(Cc1cccc(OC(F)(F)F)c1)Nc1nnc(CCCCc2cc3cc(Cc4ccccc4)[nH]c3nn2)s1 [Example 58, N-[5-(4-{6-benzyl-7H-pyrrolo[2,3-c]pyridazin-3-yl}butyl)-1,3,4-thiadiazol-2-yl]-2-[3-(trifluoromethoxy)phenyl]acetamide]
< 100 | < 100 | CC(C)(C)OC(=O)NCc1cccc(CC(=O)Nc2nnc(CCCCc3cc4cc(Cc5ccccc5)[nH]c4nn3)s2)c1 [Example 59, tert-butyl N-{[3-({[5-(4-{6-benzyl-7H-pyrrolo[2,3-c]pyridazin-3-yl}butyl)-1,3,4-thiadiazol-2-yl]carbamoyl}methyl)phenyl]methyl}carbamate]
